In patent US20200222400A1, “METHODS FOR THE TREATMENT OF NEUROLOGICAL DISORDERS” (Yumanity Therapeutics, Inc., priority 2019, published 2020):

Experiments:
[1] = system: alpha-synuclein transfected U2OS cells; experiment: U2OS ATP assay (alpha-synuclein toxicity); assay type: cell-based, human; settings: 72 h, titration
Method: U2OS cells were trypsinized using 0.25% trypsin-EDTA (Thermo Fisher) for 5 min at 37° C. followed by centrifugation at 800 rpm for 5 min at room temperature. Cell pellets were re-suspended in SE solution (Lonza Biologics, Inc.) at a density of […]. Alpha-synuclein wild-type or empty control (pcDNA) plasmids were transfected at a ratio of […] per 1,000,000 cells. For genetic modifier studies, mRab1a was titrated at various concentrations in the presence of SNCA plasmids. Nucleofection was performed using 4D-NUCLEOFECTOR™ System (Lonza Biosciences, Inc.) under program code CM130 in either 20 μL Nucleocuvette™ strips or 100 μl single Nucleocuvettes™. Cells recovered at room temperature for 10-15 minutes after nucleofection before further handling. Pre-warmed medium was added and cells were thoroughly but gently mixed to a homogenous suspension before plating. Cells were seeded at 2×10^4 cells/100 μl/well into 96 well PLD-coated white plates (Corning, Inc.) using a customized semi-automated pipetting program (VIAFLO 384/96, Integra Biosciences).
Powders of reference SCD inhibitors (CAY10566, A939572 and MF-438) were resuspended and serial diluted in DMSO. […] ATP content was then measured using the CellTiter-Glo® kit (Promega) with luminescence signals measured on an EnVision multimode plate reader (Perkin Elmer).

[2] = system: human iPSC-derived neurons harboring the alpha-synuclein A53T mutation; experiment: Neuron survival assay, iPSC-derived neurons harboring alpha-synuclein A53T mutation; assay type: cell-based; settings: 100 nM and 30 nM, relative to DMSO in A53T neurons
Method: Human control and patient-derived trans-differentiated neurons were transfected with an RFP reporter driven by the human MAP2 promoter (MAP2-mApple) following the protocol for rat primary neurons as described above with the following exceptions: lipofection was carried out for approximately 1 h, and the final media replacement was with BrainPhys™ media supplemented with BDNF, GNDF, cAMP, ascorbic acid, and laminin.
Transfected neuronal cultures were imaged at 12-24 h intervals for the indicated number of days by robotic microscopy. Fluorescence images were acquired with a Nikon Eclipse Ti microscope equipped with a motorized stage, 20× extra-long working distance (ELWD) objective, and an Andor Zyla cMOS camera. During image acquisition, microplates were enclosed in an on-stage environmental chamber controlling temperature, CO2, and humidity (Okolab). Images were processed and analyzed with custom-made scripts in R and ImageJ software. The lifetimes of individual neurons were determined by tracking fluorescently-labeled neurons in ImageJ. Neuronal death was determined to occur upon incidence of RFP signal loss or rupture of cell body. Cox proportional hazards analysis was used to generate cumulative hazard plots and determine the risk of neuron death. Log-rank test was used to determine statistical significance of survival curve divergence between neuron cohorts.

SCD = experiment: Fatty acid saturation in guinea pig brain after oral SCD inhibitors (GC-FID of FAME); assay type: in vivo; settings: oral 25 mg/kg twice daily 5 days, vs vehicle
Method: FIG. 19A-FIG. 19F are a series of graphs showing an evaluation of fatty acid saturation in guinea pig brain after oral administration of SCD inhibitors. Guinea pigs were dosed orally with SCD inhibitors twice daily (every 12 hours) for 5 days. Guinea pigs were dosed with vehicle, SCD5 Selective Inhibitor 1 (“SCD5-SI-1”), SCD5 Selective Inhibitor 2 (“SCD5-SI-2”), CAY10566 (“CAY”) or SCD1/SCD5 Inhibitor 1 (“SCD1/5-1”), all compounds at 25 mg/kg with a volume-matched vehicle control. Four hours after the last dose on day 5, guinea pigs were sacrificed, and brains were removed after whole-body saline perfusion. […] Samples were evaluated on a gas chromatograph with a flame ionization detector (GC-FID) to quantify a comprehensive panel of fatty acid species. Brain samples were evaluated for levels of 16 (FIG. 19A) and 18 (FIG. 19B) carbon-containing fatty acids (C16, C18 respectively), and the desaturation index (DI) was calculated by taking the ratio of desaturated to saturated fatty acid for each species. […] Brain samples were evaluated for the relative levels of the positional isomers of C16, including C16:1 n7 palmitoleic acid (FIG. 19C) or C16:1 n9 monounsaturated fatty acids (FIG. 19D). […] Data was analyzed by one-way ANOVA with Tukey's post-hoc test to account for multiple comparisons. ** p<0.01, *** p<0.005, **** p<0.0001. […]

For `Cc1nnc(-c2ccc(N3CCC(Oc4cc(F)ccc4Cl)CC3)nn2)o1` [CAY10566], the “cellular ATP levels” value [1] was “significantly reversed alpha-synuclein-dependent decreases in ATP levels in a concentration-dependent fashion”, the “risk of neuron death” value [2] was “significantly reduced” and the “C16 desaturation index (DI), brain” value (SCD) was “decreased the C16 DI”.
